Test results taken from patent US5037960A, “Inhibitor of protein synthesis, process for its isolation, its use and pharmaceutical compositions in which it is present” (priority 1986, dated 1991).

System: protein synthesis (subcellular fractions of rat liver)
Assay type: biochemical
Conditions: compared with native trichokirin
Excerpt: The in vitro protocol uses appropriately complemented subcellular fractions of rat liver capable of incorporating ^14 C-phenylalanine in the presence of an artificial messenger RNA: polyuridylic acid.
The procedure employed for preparing the subcellular fractions and measuring the incorporation of ^14 C-phenylalanine is an adaptation of the method described in BBA 312, 608-615 (1973), using both a microsomal fraction and a cytosol fraction of the rat hepatocytes. The sample containing the trichokirin is introduced in the form of a solution appropriately diluted in a 50 mM tris-HCl buffer, pH 7.6, containing 0.2% of 2-mercaptoethanol and 15 micrograms/ml of bovine serum albumin. The count data are used to calculate, relative to a reference medium without inhibitor, the percentage inhibition of the incorporation of ^14 C-phenylalanine for each reaction medium.
The values obtained together make it possible to determine the concentration of trichokirin (or IC50) which inhibits the incorporation of ^14 C-phenylalanine by 50% under the experimental conditions.

Substance: mercaptosuccinoyl-trichokirin [modified trichokirin]
- effect of the modification on activity: does not cause a significant loss of activity
